Earlier results, collected in patent US20060233725A1, “Non-Endocrine Disrupting Cytoprotective UV Radiation Resistant Substance” (priority 2001, published 2006).

Tested on: cancer cells
Conditions: recent studies on endocrine disrupting agents in sunscreen formulations

Effect on growth of cancer cells, made cancer cells grow more rapidly:
Cc1ccc(C=C2C(=O)C3(C)CCC2C3(C)C)cc1 (centres unmarked) [4-methylbenzylidene camphor]
COc1ccc(C(=O)c2ccccc2)c(O)c1 [benzophenone-s]
CC1CC(OC(=O)c2ccccc2O)CC(C)(C)C1 (centres unmarked) [homosalate]
CCCCC(CC)COC(=O)C=Cc1ccc(OC)cc1 (centres unmarked) [octyl methoxycinnamate]
CCCCC(CC)COC(=O)c1ccc(N(C)C)cc1 (centres unmarked) [octyl-dimethyl-PABA]
